The values below come from patent publication US20210315893A1 (Galapagos NV, priority 2017, published 2021).

pEC50: −log10 of the molar value.

In one test the target is T1, S1PR2 (Homo sapiens, UniProt O95136).
T1 construct: expressed in transfected cells
Description: S1PR2 binding assay (competition with radioactively labeled S1P, SpA). The settings on record: membranes from stable cell line over expressing S1PR2, SpA beads; read-out: S1P2 EC50 (nM), S1PR2 binding EC50. The method in brief: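 Scintillation proximity read-out after 2 h room-temperature incubation of compound, [3H]S1P and S1PR2-overexpressing cell membranes on WGA-coated beads. Buffer: 20 mM Tris pH 7.5, 100 mM NaCl, 10 mM MgCl2, 1 mM Na3VO4, 0.4% fatty-acid-free BSA; plates counted immediately after centrifugation.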

Test [1] deals with T2, human GPCR sphingosine 1-phosphate receptor 2 (Homo sapiens, UniProt O95136).
T2 construct: host or cells: CHO
T2 sequence (O95136 whole entry): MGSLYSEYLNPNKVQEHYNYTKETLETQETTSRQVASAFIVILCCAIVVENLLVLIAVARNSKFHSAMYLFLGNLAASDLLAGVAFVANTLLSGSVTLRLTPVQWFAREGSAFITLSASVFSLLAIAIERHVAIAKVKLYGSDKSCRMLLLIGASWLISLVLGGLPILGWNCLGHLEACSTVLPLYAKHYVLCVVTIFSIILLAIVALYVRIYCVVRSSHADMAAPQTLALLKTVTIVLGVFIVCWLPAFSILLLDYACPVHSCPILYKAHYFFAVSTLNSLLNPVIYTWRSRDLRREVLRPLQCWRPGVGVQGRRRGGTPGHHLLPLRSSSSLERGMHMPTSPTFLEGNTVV
Description: S1PR2 antagonist Ca2+ flux assay. It counts as cell-based. The settings on record: antagonist mode, CHO-S1PR2 cells, S1P at EC80, Ca2+ fluorescence; read-out: S1P2 EC50 (nM), S1P2 antagonist EC50. The procedure, abridged:
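Antagonist mode: 15 min after compound addition, S1P (EC80) stimulates Fluo8-loaded, 1 h-starved CHO-S1PR2 cells, Ca2+ read over 3 min; a prior 3-min read checks compound agonism. EC50 from peak/baseline fluorescence ratio, normalised versus vehicle and S1P EC50 (antagonist) or EC100 (agonist).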
On the technique in general: Calcium flux is commonly read through the fluorescence of an indicator in the cells.

For test [2], the system named is HFL-1 cells. Description: IL-8 production assay (S1P induced IL-8). It counts as cell-based. The settings on record: Homo sapiens, HFL1; S1P (1 μM) induced IL-8 in HFL-1 cells, starvation medium without HSA; read-out: IL8 EC50. The procedure, abridged: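 HFL-1 fibroblasts in low-serum medium were pretreated 1 h with a 10-point 1/3 series of compound starting at 30 μM (0.3% DMSO).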

The subject of test [3] is HFL-1 cells. As to the kind of experiment: IL8 assay in the presence of Human Serum Albumin. The settings on record: HFL1, read-out: HSA IL8 EC50.

T1 sequence (O95136 whole entry): as above

One may read the EC50 as the concentration needed to bring the measured effect to its halfway point. For orientation: pEC50 means the negative decadic logarithm of the EC50, by convention in mol/L. Consider `C[C@@H]1CN(C(=O)Cn2nc(Cc3nc4cc(Cl)c(OCC5(C#N)CC5)cc4[nH]3)c3ccccc3c2=O)C[C@H](C)O1` [Compound 162, 1-[[6-chloro-2-[[3-[2-[(2S,6R)-2,6-dimethylmorpholin-4-yl]-2-oxo-ethyl]-4-oxo-phthalazin-1-yl]methyl]-3H-benzimidazol-5-yl]oxymethyl]cyclopropanecarbonitrile], for which the EC50 at S1PR2 turned out to be 75.1 nM; in test [1], 9.07 nM. Besides, the pEC50 with HFL-1 cells [2] was 8.35; with HFL-1 cells [3] it was 8.08.
Regarding `COCCN(C)C(=O)Cn1nc(Cc2nc3cc(OCC(F)F)c(C#N)cc3[nH]2)c2ccccc2c1=O` [Compound 183, 2-[4-[[6-cyano-5-(2,2-difluoroethoxy)-1H-benzimidazol-2-yl]methyl]-1-oxo-phthalazin-2-yl]-N-(2-methoxyethyl)-N-methyl-acetamide], the values for the 50% effective concentration (EC50) (at S1PR2; in test [1]) were 307 nM and 76 nM, respectively. Moreover, the results for the negative logarithm of the EC50 (pEC50) in the test on HFL-1 cells [2] and in the test on HFL-1 cells [3] were 6.71 and 6.37, respectively.
`COC1CCN(C(=O)Cn2nc(Cc3nc4cc(C#N)c(OCC(F)F)cc4[nH]3)c3ccccc3c2=O)C1` (stereo not shown) [Compound 186, 6-(2,2-difluoroethoxy)-2-[[3-[2-(3-methoxypyrrolidin-1-yl)-2-oxo-ethyl]-4-oxo-phthalazin-1-yl]methyl]-1H-benzimidazole-5-carbonitrile]: the values for the concentration giving a half-maximal response (EC50) (on S1PR2; in test [1]) were 141 nM and 25 nM, respectively. Moreover, the negative-log EC50 (pEC50) in the test on HFL-1 cells [2] was 7.46; with HFL-1 cells [3], 7.09.
Take `COCC(O)CNC(=O)Cn1nc(Cc2nc3cc(C#N)c(OCC(F)F)cc3[nH]2)c2ccccc2c1=O` (stereo not shown) [Compound 192, 2-[4-[[5-cyano-6-(2,2-difluoroethoxy)-1H-benzimidazol-2-yl]methyl]-1-oxo-phthalazin-2-yl]-N-(2-hydroxy-3-methoxypropyl)acetamide]: the EC50 is 190 nM on S1PR2 and 41 nM in test [1]. The pEC50 was 6.81 with HFL-1 cells [2] and 6.18 in the test with HFL-1 cells [3].
`CC(C)(C)CNC(=O)Cn1nc(Cc2nc3cc(OCC(F)F)c(C#N)cc3[nH]2)c2ccccc2c1=O` [Compound 202, 2-[4-[[6-cyano-5-(2,2-difluoroethoxy)-1H-benzimidazol-2-yl]methyl)-1-oxo-phthalazin-2-yl]-N-(2,2-dimethylpropyl)acetamide]: the EC50 on S1PR2 turned out to be 48 nM; in test [1], 6.86 nM. The pEC50 in the test with HFL-1 cells [2] was 7.87; in the test with HFL-1 cells [3] it was 6.32.
Turning to `CC1(O)CCN(C(=O)Cn2nc(Cc3cn4cc(OCC5CC5)c(C#N)cc4n3)c3ccccc3c2=O)C1` (stereo not shown) [Compound 210, 6-(cyclopropylmethoxy)-2-[[3-[2-(3-hydroxy-3-methyl-pyrrolidin-1-yl)-2-oxo-ethyl]-4-oxo-phthalazin-1-yl]methyl)imidazo[1,2-a]pyridine-7-carbonitrile], the EC50 at S1PR2 turned out to be 233 nM; in test [1] it was 102 nM. The negative-log EC50 (pEC50) with HFL-1 cells [2] is 6.45; in the test with HFL-1 cells [3], 6.73.
`N#CC1(COc2cc3nc(Cc4nn(CC(=O)O)c(=O)c5ccccc45)[nH]c3cc2Cl)CC1` [Compound 133, 2-[4-[[5-chloro-6-[(1-cyanocyclopropyl)methoxy]-1H-benzimidazol-2-yl]methyl]-1-oxo-phthalazin-2-yl]acetic acid]: the half-maximal effective concentration (EC50) amounted to 263 nM at S1PR2 and 14.8 nM in test [1]. The pEC50 in the test with HFL-1 cells [2] is 7.48; in the test with HFL-1 cells [3] it was 6.57.
For the compound `CN(CC(F)F)C(=O)Cn1nc(Cc2nc3cc(C#N)c(OCC(F)F)cc3[nH]2)c2ccccc2c1=O` [Compound 197, 2-[4-[[5-cyano-6-(2,2-difluoroethoxy)-1H-benzimidazol-2-yl]methyl]-1-oxo-phthalazin-2-yl]-N-(2,2-difluoroethyl)-N-methyl-acetamide], the concentration giving a half-maximal response (EC50) was 80.3 nM on S1PR2 and 32.5 nM in test [1]. Also, the figures for the negative logarithm of the EC50 (pEC50) in the test with HFL-1 cells [2] and with HFL-1 cells [3] were 6.86 and 6.20, respectively.
With `CN(CCS(C)(=O)=O)C(=O)Cn1nc(Cc2nc3cc(OCC(F)F)c(C#N)cc3[nH]2)c2ccccc2c1=O` [Compound 220, 2-[4-[[6-cyano-5-(2,2-difluoroethoxy)-1H-benzimidazol-2-yl)methyl]-1-oxo-phthalazin-2-yl]-N-methyl-N-(2-methylsulfonylethyl)acetamide], the values for the EC50 (on S1PR2; in test [1]) were 320 nM and 52.6 nM, respectively. Besides, the pEC50 was 6.99 with HFL-1 cells [2] and 6.49 with HFL-1 cells [3].
With `O=C(Cn1nc(Cc2nc3cc(Cl)c(OCC(F)F)cc3[nH]2)c2ccccc2c1=O)N1CCOCC1` [Compound 151, 4-[[5-chloro-6-(2,2-difluoroethoxy)-1H-benzimidazol-2-yl]methyl]-2-(2-morpholino-2-oxo-ethyl)phthalazin-1-one], the 50% effective concentration (EC50) at S1PR2 is 34.7 nM; in test [1], 13.6 nM. The pEC50 is 8.15 in the test on HFL-1 cells [2] and 7.36 with HFL-1 cells [3].
For the compound `N#Cc1cc2nc(Cc3nn(CC(=O)N4CCC(F)(F)CC4)c(=O)c4ccccc34)[nH]c2cc1OCC(F)F` [Compound 188, 6-(2,2-difluoroethoxy)-2-[[3-[2-(4,4-difluoro-1-piperidyl)-2-oxo-ethyl]-4-oxo-phthalazin-1-yl]methyl]-1H-benzimidazole-5-carbonitrile], the concentration giving a half-maximal response (EC50) on S1PR2 worked out at 380 nM; in test [1], 63.4 nM. The negative logarithm of the EC50 (pEC50) is 6.59 in the test with HFL-1 cells [2] and 6.18 in the test with HFL-1 cells [3].
As for `COc1ccc2c(Cc3nc4cc(Cl)c(OCC(F)F)cc4[nH]3)nn(CC(=O)N3CCOCC3)c(=O)c2c1` [Compound 31, 4-[[5-chloro-6-(2,2-difluoroethoxy)-1H-benzimidazol-2-yl]methyl]-7-methoxy-2-(2-morpholino-2-oxo-ethyl)phthalazin-1-one], the 50% effective concentration (EC50) at S1PR2 was 93.2 nM; in test [1], 9.11 nM. Besides, the results for the pEC50 with HFL-1 cells [2] and in the test on HFL-1 cells [3] were 7.96 and 7.14, respectively.
As to `CC(C#N)CN(C)C(=O)Cn1nc(Cc2nc3cc(C#N)c(OCC(F)F)cc3[nH]2)c2ccccc2c1=O` (stereo not shown) [Compound 195, 2-[4-[[5-cyano-6-(2,2-difluoroethoxy)-1H-benzimidazol-2-yl]methyl]-1-oxo-phthalazin-2-yl]-N-(2-cyanopropyl)-N-methyl-acetamide], the figures for the concentration giving a half-maximal response (EC50) (on S1PR2; in test [1]) were 197 nM and 31.9 nM, respectively. The pEC50 with HFL-1 cells [2] is 7.56; in the test on HFL-1 cells [3], 6.77.
Consider `COCCNC(=O)Cn1nc(Cc2nc3cc(C#N)c(OCC(F)F)cc3[nH]2)c2ccccc2c1=O` [Compound 187, 2-[4-[[5-cyano-6-(2,2-difluoroethoxy)-1H-benzimidazol-2-yl]methyl]-1-oxo-phthalazin-2-yl]-N-(2-methoxyethyl)acetamide], for which the EC50 on S1PR2 turned out to be 165 nM; in test [1], 50.2 nM. Further, the negative-log EC50 (pEC50) in the test with HFL-1 cells [2] is 7.13; with HFL-1 cells [3], 7.09.
`O=c1c2ccccc2c(Cc2nc3cc(Cl)c(OC(F)(F)F)cc3[nH]2)nn1CC1CNC1` [Compound 61, 2-(azetidin-3-ylmethyl)-4-[[6-chloro-5-(trifluoromethoxy)-1H-benzimidazol-2-yl]methyl]phthalazin-1-one]: the EC50 on S1PR2 turned out to be 581 nM; in test [1], 677 nM. Also, the pEC50 with HFL-1 cells [2] was 6.23; in the test with HFL-1 cells [3] it was 5.95.
On the same counts, the results for `O=c1c2ccccc2c(Cc2nc3cc(Cl)c(OC(F)(F)F)cc3[nH]2)nn1C1CCNCC1` [Compound 62, 4-[[6-chloro-5-(trifluoromethoxy)-1H-benzimidazol-2-yl]methyl]-2-(4-piperidyl)phthalazin-1-one] are 453 nM, 968 nM, 6.46 and 5.19.
Regarding `N#Cc1cc2nc(Cc3nn(CC(=O)N4CCC(F)(F)CC4)c(=O)c4c3CCCC4)[nH]c2cc1OCC(F)F` [Compound 185, 6-(2,2-difluoroethoxy)-2-[[3-[2-(4,4-difluoro-1-piperidyl)-2-oxo-ethyl]-4-oxo-5,6,7,8-tetrahydrophthalazin-1-yl]methyl]-1H-benzimidazole-5-carbonitrile], the figures for the 50% effective concentration (EC50) (at S1PR2; in test [1]) were 166 nM and 30.4 nM, respectively. Also, the pEC50 in the test with HFL-1 cells [2] was 7.03; in the test with HFL-1 cells [3], 6.52.
With `CS(=O)(=O)c1ccc2c(=O)n(CC(=O)N3CCOCC3)nc(Cc3nc4cc(Cl)c(OCC(F)F)cc4[nH]3)c2c1` [Compound 41, 4-[[5-chloro-6-(2,2-difluoroethoxy)-1H-benzimidazol-2-yl]methyl]-6-methylsulfonyl-2-(2-morpholino-2-oxo-ethyl)phthalazin-1-one], the concentration for a half-maximal effect (EC50) amounted to 1310 nM at S1PR2 and 1050 nM in test [1]. Further, the values for the pEC50 in the test on HFL-1 cells [2] and with HFL-1 cells [3] were 6.16 and 5.56, respectively.
For `N#Cc1cc2nc(Cc3nn(C4CN(CC(=O)O)C4)c(=O)c4ccccc34)cn2cc1OCC1CC1` [Compound 73], the results for the EC50 (on S1PR2; in test [1]) were 478 nM and 1330 nM, respectively. The negative-log EC50 (pEC50) in the test on HFL-1 cells [2] was 6.44; in the test on HFL-1 cells [3] it was 6.25.
